This data set in a line: Solubility noted during NMR characterisation. Format: physicochemical. As to conditions: NMR solvents (DMSO-d6 or CDCl3). Here is the method:
All melting points were taken on a Büchi-Tottoly capillary apparatus. IR spectra were determined in bromoform with a Shimadzu FT/IR 8400S spectrophotometer. ^1H and ^13C NMR spectra were measured at 200 and 50.0 MHz, respectively, in dimethylsulfoxide (DMSO)-d6 or CDCl3 solution, using a Bruker Avance II series 200 MHz spectrometer. […] Column chromatography was performed with Merk silica gel 230–400 mesh ASTM or with Büchi Sepacor chromatography module (prepacked cartridge system). Elemental analyses (C, H, N) were within ±0.4% of theoretical values and were performed with a VARIO EL III elemental analyzer. Purity of all the tested compounds was greater than 98%, determined by HPLC as described below.

Consider `Cn1cc(-c2csc(-c3c[nH]c4ncccc34)n2)c2cc(F)ccc21` [Compound 3a, 3-[4-(5-Fluoro-1-methyl-1H-indol-3-yl)-1,3-thiazol-2-yl]-1H-pyrrolo[2,3-b]pyridine], for which the solubility entry is “poor solubility”.
Then `Cn1cc(-c2csc(-c3cn(C)c4ncccc34)n2)c2cc(F)ccc21` [Compound 3b, 3-[4-(5-Fluoro-1-methyl-1H-indol-3-yl)-1,3-thiazol-2-yl]-1-methyl-1H-pyrrolo[2,3-b]pyridine], with “poor solubility”.

Values taken from article PMC4413193, “3-[4-(1H-Indol-3-yl)-1,3-thiazol-2-yl]-1H-pyrrolo[2,3-b]pyridines, Nortopsentin Analogues with Antiproliferative Activity” (Marine Drugs, 2015).
